Reference: patent publication US10570179B2, “Substituted urea depsipeptide analogs as activators of the CLPP endopeptidase” (priority 2016, dated 2020)
≈ marks a conversion by molar mass, not a printed value. Numbered stars: 1 amine (or outer) side, 2 acyl side, 3 side chain; on linkers, the order of the positions; unused ones are H or OH. Bridge positions count the residues as written; N and C are the ends. Square brackets hold non-standard residues; d marks the D form. Peptide text beside a SMILES is read from it. * marks the point of attachment. Piperazine(2S-CO,4-Me) = CN1CCN[C@H](C(=O)O)C1; Phe(3-Me) = Cc1cccc(C[C@H](N)C(=O)O)c1; NH(4-Cl-2-F-phenyl) = Fc1cc(Cl)ccc1N*; Pro(4R-Me) = C[C@H]1CN[C@H](C(=O)O)C1; Hyp = O=C(O)[C@@H]1C[C@@H](O)CN1; aThr = C[C@H](O)[C@H](N)C(=O)O; Pip = O=C(O)[C@@H]1CCCCN1; CO = O=C([*:1])[*:2]; X2 = Fc1cc(N*)ccc1Cl

How the values were obtained:
[1] = Microsomal metabolic stability; type: in vitro ADME, human; conditions: human, pH 7.4
Protocol: Compounds were initially prepared by dissolving them into DMSO at a final concentration of 10 mM. NADPH regenerating solutions A and B and mouse liver microsomes (CD-1) were obtained from BD Gentest (Woburn, Mass.). Ninety-six well deep well plates were obtained from MidWest Scientific Inc (Valley Park, Mo.).
Sample preparation for microsomal stability was modified from methods of Di, L., et al., Int J Pharm. 2005 Jun. 13; 297(1-2):110-9. A set of incubation times of 0, 15, 30, 60, 120, and 240 minutes were used. Mouse liver microsomal solutions were prepared by adding 58 μL of concentrated human or mouse liver microsomes (20 mg/mL protein concentration) to 1.756 mL of 0.1 M potassium phosphate buffer (pH 7.4) and 5 μL of 0.5 M EDTA to make a 0.6381 mg/mL (protein) microsomal solution. NADPH regenerating agent contained 113 μL of NADPH A, 23 μL of NADPH B, and 315 μL of 0.1 M potassium phosphate buffer (pH 7.4). The diluted test compound solutions (2 μL) were each added directly to a 1.79 mL of liver microsomal solution. This solution was mixed and 90 μL was transferred to 6 time points plates (each in triplicate wells). For the time 0 plate, 225 μL of cold acetonitrile with internal standard ([…] warfarin) was added to each well, followed by addition of NADPH regenerating agent (22.5 μL) and no incubation. For other five time points' plate, NADPH regenerating agent (22.5 μL) was added to each well to initiate the reaction. The plates were incubated at 37° C. for the required time, followed by quenching of the reaction by adding 225 μL of cold acetonitrile with internal standard (4 μg/ml warfarin). All of the plates were sealed and mixed well at 600 rpm for 10 minutes followed by centrifugation at 4000 rpm for 20 minutes. The supernatants (120 μL) were transferred to analytical plates for analysis by LCMS. LCMS conditions were described in the materials and instrumentation section above. The metabolic stability is evaluated via the half-life from least-squares fit of the multiple time points based on first-order kinetics.

[2] = Plasma protein binding, rapid equilibrium dialysis; type: in vitro ADME, human; conditions: human, 4 h, 10 μM, pH 7.4
Protocol: This assay determines plasma protein binding of a drug/compound and free drug concentration in plasma using rapid equilibrium dialysis, which allow the aqueous component of plasma containing the free drug/compound through a dialysis membrane (MWCO˜8,000).
Solutions were prepared at 10 mM in DMSO. Dulbecco's phosphate buffered saline (DPBS; pH 7.4) was obtained from Invitrogen (Carlsbad, Calif.). Single-Use RED (rapid equilibrium dialysis) device was obtained from Thermo scientific (Rockford, Ill.). Human plasma was obtained from Innovative Research INC (Novi, Michigan, Ill).
Sample preparation for plasma protein binding was modified from Waters' method. (Waters et al. (2008) J. Pharm. Sci. 97(10): 4586-95). The Teflon base plate with the RED inserts (MWCO 8 K) were allowed to use without any pre-condition the membrane inserts. Human plasma was thawed and centrifuged at 1000 rpm for 2 min to remove any particulates. Each compound was prepared at 10 μM in human plasma. This was done by adding 1 μL, of drug solution (10 mM in DMSO) to 1000 μL, of human plasma (0.1% DMSO). Spiked plasma solutions (300 μL) were placed into the sample chamber (indicated by the red ring) and 500 μL, of DPBS into the adjacent chamber. The plate was sealed and incubated at 37° C. on an orbital shaker (100 rpm) for 4 hours. After incubation, the seal was removed from the RED plate and the volume of the insert confirmed—little to no volume change occurred. Aliquots (50 μL) were removed from each side of the insert and dispensed into a 96-well deep plate. An equal volume of blank plasma or DPBS was added to the required wells to create analytically identical sample matrices (matrix matching). To each sample 200 μL, of ACN containing 4 μg/mL warfarin IS was added. All of the plates were sealed and mixed well at 600 rpm for 10 min and were centrifuged at 4000 rpm for 20 min. The supernatants (120 μL) were transferred to analytical plates for analysis by LCMS. Conditions for Waters ACQUITY-UPLC-MS-UV system were described separately. The test compound concentrations were quantified in both buffer and plasma chambers via peak areas relative to the internal standard. The percentage of the test compound bound to plasma was calculated on following equations: % Free=(Concentration buffer chamber/concentration plasma chamber)×100% and % Bound=100%-% Free.

[3] = Solubility determination; type: physicochemical; conditions: for solubility kinetic at 10 min: 22 °C, aqueous buffer, kinetic from dmso stock
Protocol: Test compounds were synthesized and supplied by the Department of Chemical Biology and Therapeutics at St. Jude Children's Research Hospital (Memphis, Tenn.). LC-MS chromasolv grade acetonitrile (ACN) was purchased from Fisher Scientific (Loughborough, UK). LC-MS chromasolv grade formic acid was obtained from Sigma-Aldrich (St. Louis, Mo.). Milli-Q water as an ultrapure laboratory grade water was used in aqueous mobile phase.
Chromatographic separation was performed on an Acquity UPLC BEH C18 1.7 μm, 2.1×50 mm column (Waters Corporation, Milford, Mass.) using an Acquity ultra performance liquid chromatography system. The total flow rate was 0.9 mL/min. The sample injection volume was 10 μL. The UPLC column was maintained at 60° C. and the gradient program started at 90% A (0.1% formic acid in MilliQ H2O), changed to 70% A over 0.2 min, to 95% B (0.1% formic acid in ACN) over 1.4 minutes, held for 0.35 minutes, then to 90% A over 0.05 minutes.
Mass data was acquired with an Acquity SQD Mass Spectrometer. The mass spectrometer was operated in positive-ion mode with electrospray ionization. The conditions were as follows: capillary voltage 3.5 kV, cone voltage 30 V, source temperature 150° C., desolvation temperature 350° C., desolvation gas 500 L/hr, cone gas 25 L/hr. Data were acquired using Masslynx v. 4.1 and analyzed using the Quanlynx software suite. A full scan range from m/z=100-1000 in 0.2 s was used to acquire MS data. Both UV and Single ion recording mass spectrometry were used to determine the quantification of the samples.
Stock solutions were prepared by dissolving compounds into DMSO to yield a concentration of 10 mM. Stock solutions were stored at room temperature.
Calibration standards were made by adding stock solutions to DMSO for final concentrations of compounds at concentration of 100, 25, 6.25, 1.563, 0.391 and 0.098 μM.
Solubility test samples were made by adding stock solutions to 200 μL, of DPBS for final concentrations of compounds at 100 μM in a 96-well analytical plate (300 μL, maximum volume in each well). Samples were tested in triplicates. The plate was sealed, shaken at 600 rpm for 10 minutes, and then was centrifuged at 4000 rpm for 20 min at 22° C. 100 μL, of the supernatant was transferred to a new analytical 96-well plate and 10 μL, was injected onto the LCMS system.
Two calibration curves for solubility test samples were analyzed during the quantitation process. The linear regression of test compound peak areas was weighted by 1/x^2. […] Coefficient of determination (R^2) was used to evaluate the linearity of each calibration curve.

SMILES | Human [1] [h] | Human [2] [%] | μsol (μM) [3] [µM] | solubility kinetic at 10 min [3] [µM]
Cc1cccc(C[C@H](NC(=O)Nc2ccc(Cl)cc2F)C(=O)N[C@@H]2C(=O)N3C[C@H](O)C[C@H]3C(=O)N3CCCC[C@H]3C(=O)N[C@@H](C)C(=O)N3C[C@H](C)C[C@H]3C(=O)O[C@H]2C)c1 [Compound 6, (S)-2-(3-(4-CHLORO-2-FLUOROPHENYL)UREIDO)-N-((2R,6S,8AS,14AS,16R,20S,21S,23AS)-16-HYDROXY-2,6,21-TRIMETHYL-5,8,14,19,23-PENTAOXOOCTADECAHYDRO-1H,5H,14H,19H-PYRIDO[2,1-I]DIPYRROLO[2,1-C:2′,1′-L][1]OXA[4,7,10,13]TETRAAZACYCLOHEXADECIN-20-YL)-3-(M-TOLYL)PROPANAMIDE] ({NH(4-Cl-2-F-phenyl)-CO}-[Phe(3-Me)][aThr][Hyp][Pip]A[Pro(4R-Me)]; ester 2-C) | 4.83 ± 1.5 | 99.7 ± 0 | 13.9 ± 1.4 | 12.6 ± 0.3 (≈ 10.6 µg/mL)
Cc1cccc(C[C@H](NC(=O)Nc2ccc(Cl)cc2F)C(=O)N[C@H]2COC(=O)[C@@H]3C[C@@H](C)CN3C(=O)[C@H](C)NC(=O)[C@@H]3CCCCN3C(=O)[C@@H]3CCCN3C2=O)c1 [Compound 8, (S)-2-(3-(4-CHLORO-2-FLUOROPHENYL)UREIDO)-N-((2R,6S,8AS,14AS,20S,23AS)-2,6-DIMETHYL-5,8,14,19,23-PENTAOXOOCTADECAHYDRO-1H,5H,14H,19H-PYRIDO[2,1-I]DIPYRROLO[2,1-C:2′,1′-L][1]OXA[4,7,10,13]TETRAAZACYCLOHEXADECIN-20-YL)-3-(M-TOLYL)PROPANAMIDE] | 0.89 ± 0.13 | 98.2 ± 0.2 | 8.8 ± 0.7 | 2.79 ± 0.5 (≈ 2.26 µg/mL)
Cc1cccc(C[C@H](NC(=O)Nc2ccc(Cl)cc2F)C(=O)N[C@H]2COC(=O)[C@@H]3C[C@@H](C)CN3C(=O)[C@H](C)NC(=O)[C@@H]3CCCCN3C(=O)[C@@H]3C[C@@H](O)CN3C2=O)c1 [Compound 10] | 0.29 ± 0.04 | 99.7 ± 0.2 | 26.0 ± 0.9 | 27.04 ± 0.25 (≈ 22.3 µg/mL)
Cc1cccc(C[C@H](NC(=O)Nc2ccc(Cl)cc2F)C(=O)N[C@@H]2C(=O)N3CCC[C@H]3C(=O)N3CCN(C)C[C@H]3C(=O)N[C@@H](C)C(=O)N3C[C@H](C)C[C@H]3C(=O)O[C@H]2C)c1 [Compound 11, (S)-2-(3-(4-CHLORO-2-FLUOROPHENYL)UREIDO)-N-((6AS,12S,13S,15AS,17R,21S,23AS)-2,13,17,21-TETRAMETHYL-6,11,15,20,23-PENTAOXOOCTADECAHYDRO-2H,6H,11H,15H-PYRAZINO[2,1-I]DIPYRROLO[2,1-C:2′,1′-L][1]OXA[4,7,10,13]TETRAAZACYCLOHEXADECIN-12-YL)-3-(M-TOLYL)PROPANAMIDE] ({NH(4-Cl-2-F-phenyl)-CO}-[Phe(3-Me)][aThr]P[Piperazine(2S-CO,4-Me)]A[Pro(4R-Me)]; ester 2-C) | 0.91 ± 0.10 | 97.9 ± 0.3 | 32.2 ± 1.4 | 43.2 ± 3.14 (≈ 36.3 µg/mL)
Cc1cccc(C[C@H](NC(=O)Nc2ccc(Cl)cc2F)C(=O)N[C@H]2COC(=O)[C@@H]3C[C@@H](C)CN3C(=O)[C@H](C)NC(=O)[C@@H]3CCCCN3C(=O)[C@@H]3C[C@H](N)CN3C2=O)c1 [Compound 12, (S)—N-((2R,6S,8AS,14AS,16S,20S,23AS)-16-AMINO-2,6-DIMETHYL-5,8,14,19,23-PENTAOXOOCTADECAHYDRO-1H,5H,14H,19H-PYRIDO[2,1-I]DIPYRROLO[2,1-C:2′,1′-L][1]OXA[4,7,10,13]TETRAAZACYCLOHEXADECIN-20-YL)-2-(3-(4-CHLORO-2-FLUOROPHENYL)UREIDO)-3-(M-TOLYL)PROPANAMIDE] | 3.34 ± 0.6 | 99.9 ± 0.2 | 24.7 ± 3.7 | 37.5 ± 13 (≈ 30.9 µg/mL)
Cc1cccc(C[C@H](NC(=O)Nc2ccc(Cl)cc2F)C(=O)N[C@H]2COC(=O)[C@@H]3C[C@@H](C)CN3C(=O)[C@H](C)NC(=O)[C@@H]3CN(C)CCN3C(=O)[C@@H]3CCCN3C2=O)c1 [Compound 13, (S)-2-(3-(4-CHLORO-2-FLUOROPHENYL)UREIDO)-3-(M-TOLYL)-N-((6AS,12S,15AS,17R,21S,23AS)-2,17,21-TRIMETHYL-6,11,15,20,23-PENTAOXOOCTADECAHYDRO-2H,6H,11H,15H-PYRAZINO[2,1-I]DIPYRROLO[2,1-C:2′,1′-L][1]OXA[4,7,10,13]TETRAAZACYCLOHEXADECIN-12-YL)PROPANAMIDE] ({NH(4-Cl-2-F-phenyl)-CO}-[Phe(3-Me)]SP[Piperazine(2S-CO,4-Me)]A[Pro(4R-Me)]; ester 2-C) | 0.38 ± 0.04 | 97.0 ± 0.6 | 38.3 ± 2.2 | 40.1 ± 4.6 (≈ 33.1 µg/mL)
Cc1cccc(C[C@H](NC(=O)Nc2ccc(Cl)c(F)c2)C(=O)N[C@H]2COC(=O)[C@@H]3C[C@@H](C)CN3C(=O)[C@H](C)NC(=O)[C@@H]3CN(C)CCN3C(=O)[C@@H]3CCCN3C2=O)c1 [Compound 14, (S)-2-(3-(4-CHLORO-3-FLUOROPHENYL)UREIDO)-3-(M-TOLYL)-N-((6AS,12S,15AS,17R,21S,23AS)-2,17,21-TRIMETHYL-6,11,15,20,23-PENTAOXOOCTADECAHYDRO-2H,6H,11H,15H-PYRAZINO[2,1-I]DIPYRROLO[2,1-C:2′,1′-L][1]OXA[4,7,10,13]TETRAAZACYCLOHEXADECIN-12-YL)PROPANAMIDE] ({X2-CO}-[Phe(3-Me)]SP[Piperazine(2S-CO,4-Me)]A[Pro(4R-Me)]; ester 2-C) | 0.73 ± 0.07 | 99.1 ± 0.2 | 43.6 ± 1.8 | 39.3 ± 1.9 (≈ 32.4 µg/mL)
